Experimental data taken from the NIST ThermoML archive (doi:10.1021/je1005196).
Numbers after ± are expanded uncertainties.

Experiments:
[1] = Liquid; for speed of sound / mass density: 101.33 kPa; for speed of sound: Linear variable-path acoustic interferometer; for mass density: Pycnometric method
[2] = xn = mol fraction of the nth substance listed; settings: 308.15 K, 101 kPa, Liquid; for excess molar volume: Direct dilatometry; for speed of sound: Linear variable-path acoustic interferometer
[3] = excess molar enthalpy (molar enthalpy of mixing); xn = mol fraction of the nth substance listed; settings: 308.15 K, 101 kPa, Liquid, Calvet calorimetry

Cc1ccccc1N [2-methylaniline]
[1]
Settings | mass density [kg/m3] | speed of sound [m/s] | vapor or sublimation pressure [kPa]
298.15 K | 994.2 ± 0.6 | 1602 ± 3 | –
308.15 K | – | – | 0.0667 ± 0.08

Settings | vapor or sublimation pressure [kPa]
[1], 298.15 K, Closed cell (Static) method | 0.04

Cc1ccccc1N [2-methylaniline] + C1CCOCC1
Settings | excess molar enthalpy [kcal/mol] | excess molar volume [m3/mol] | speed of sound [m/s]
[2], x2 = 0.0832 | – | – | 1535 ± 3
[2], x2 = 0.1451 | – | – | 1505 ± 3
[2], x2 = 0.1881 | – | -3.94e-07 ± 5e-09 | –
[2], x2 = 0.2102 | – | – | 1475 ± 3
[2], x2 = 0.2321 | – | -4.57e-07 ± 5e-09 | –
[2], x2 = 0.2918 | – | – | 1441 ± 3
[2], x2 = 0.2967 | – | -5.47e-07 ± 6e-09 | –
[2], x2 = 0.3245 | – | -5.75e-07 ± 6e-09 | –
[2], x2 = 0.3581 | – | – | 1414 ± 3
[2], x2 = 0.3834 | – | -6.36e-07 ± 7e-09 | –
[2], x2 = 0.4002 | – | – | 1399 ± 3
[2], x2 = 0.4704 | – | -7.08e-07 ± 8e-09 | –
[2], x2 = 0.4981 | – | – | 1364 ± 3
[2], x2 = 0.5181 | – | -7.32e-07 ± 8e-09 | –
[2], x2 = 0.5423 | – | -7.37e-07 ± 8e-09 | –
[2], x2 = 0.5638 | – | – | 1343 ± 3
[2], x2 = 0.6112 | – | -7.45e-07 ± 8e-09 | –
[2], x2 = 0.6118 | – | – | 1328 ± 3
[2], x2 = 0.6877 | – | -7.22e-07 ± 8e-09 | –
[2], x2 = 0.7148 | – | – | 1299 ± 3
[2], x2 = 0.7414 | – | -6.82e-07 ± 7e-09 | –
[2], x2 = 0.7981 | – | – | 1277 ± 3
[2], x2 = 0.8213 | – | -5.66e-07 ± 6e-09 | –
[2], x2 = 0.8412 | – | – | 1267 ± 3
[2], x2 = 0.8974 | – | -3.81e-07 ± 5e-09 | –
[2], x2 = 0.9003 | – | – | 1253 ± 3
[2], x2 = 0.9426 | – | -2.35e-07 ± 3e-09 | –
[2], x2 = 0.9628 | – | – | 1240 ± 3
[3], x2 = 0.0701 | -0.0286 ± 0.000693 | – | –
[3], x2 = 0.1765 | -0.0678 ± 0.00151 | – | –
[3], x2 = 0.2379 | -0.0874 ± 0.00191 | – | –
[3], x2 = 0.295 | -0.103 ± 0.00225 | – | –
[3], x2 = 0.3344 | -0.113 ± 0.00239 | – | –
[3], x2 = 0.3911 | -0.124 ± 0.00263 | – | –
[3], x2 = 0.435 | -0.137 ± 0.00287 | – | –
[3], x2 = 0.4901 | -0.137 ± 0.00287 | – | –
[3], x2 = 0.5521 | -0.139 ± 0.00311 | – | –
[3], x2 = 0.6276 | -0.136 ± 0.00287 | – | –
[3], x2 = 0.6982 | -0.126 ± 0.00263 | – | –
[3], x2 = 0.741 | -0.117 ± 0.00263 | – | –
[3], x2 = 0.8546 | -0.0792 ± 0.00174 | – | –
[3], x2 = 0.9201 | -0.048 ± 0.00108 | – | –

CNc1ccccc1 [N-methylaniline]
[1]
Settings | mass density [kg/m3] | speed of sound [m/s] | vapor or sublimation pressure [kPa]
298.15 K | 982.4 ± 1.3 | 1572 ± 3 | –
308.15 K | – | – | 0.1067 ± 0.08

Settings | vapor or sublimation pressure [kPa]
[1], 298.15 K, Closed cell (Static) method | 0.0667 ± 0.08

CNc1ccccc1 [N-methylaniline] + C1CCOCC1
Settings | excess molar enthalpy [kcal/mol] | excess molar volume [m3/mol] | speed of sound [m/s]
[2], x2 = 0.0541 | – | – | 1509 ± 3
[2], x2 = 0.0764 | – | -7.2e-08 ± 2e-09 | –
[2], x2 = 0.1321 | – | – | 1490 ± 3
[2], x2 = 0.1416 | – | -1.25e-07 ± 3e-09 | –
[2], x2 = 0.1921 | – | -1.59e-07 ± 3e-09 | –
[2], x2 = 0.2316 | – | – | 1468 ± 3
[2], x2 = 0.244 | – | -1.89e-07 ± 3e-09 | –
[2], x2 = 0.2811 | – | – | 1457 ± 3
[2], x2 = 0.2905 | – | -2.1e-07 ± 3e-09 | –
[2], x2 = 0.3451 | – | -2.27e-07 ± 3e-09 | –
[2], x2 = 0.3612 | – | – | 1437 ± 3
[2], x2 = 0.3984 | – | -2.37e-07 ± 3e-09 | –
[2], x2 = 0.4112 | – | – | 1424 ± 3
[2], x2 = 0.4515 | – | -2.4e-07 ± 3e-09 | –
[2], x2 = 0.4932 | – | – | 1400 ± 3
[2], x2 = 0.5224 | – | -2.34e-07 ± 3e-09 | –
[2], x2 = 0.5638 | – | – | 1377 ± 3
[2], x2 = 0.613 | – | -2.1e-07 ± 3e-09 | –
[2], x2 = 0.6148 | – | – | 1360 ± 3
[2], x2 = 0.6873 | – | -1.78e-07 ± 3e-09 | –
[2], x2 = 0.6919 | – | – | 1332 ± 3
[2], x2 = 0.7418 | – | – | 1313 ± 3
[2], x2 = 0.7531 | – | -1.44e-07 ± 3e-09 | –
[2], x2 = 0.8141 | – | – | 1287 ± 3
[2], x2 = 0.8231 | – | -1.03e-07 ± 2e-09 | –
[2], x2 = 0.8992 | – | – | 1257 ± 3
[2], x2 = 0.9191 | – | -4.5e-08 ± 2e-09 | –
[2], x2 = 0.9514 | – | – | 1239 ± 3
[3], x2 = 0.0856 | -0.0264 ± 0.000645 | – | –
[3], x2 = 0.1321 | -0.0407 ± 0.000932 | – | –
[3], x2 = 0.1976 | -0.06 ± 0.00134 | – | –
[3], x2 = 0.2434 | -0.0727 ± 0.0016 | – | –
[3], x2 = 0.3122 | -0.0899 ± 0.00196 | – | –
[3], x2 = 0.3876 | -0.105 ± 0.00229 | – | –
[3], x2 = 0.4444 | -0.114 ± 0.00239 | – | –
[3], x2 = 0.4878 | -0.119 ± 0.00263 | – | –
[3], x2 = 0.5548 | -0.122 ± 0.00263 | – | –
[3], x2 = 0.6233 | -0.121 ± 0.00263 | – | –
[3], x2 = 0.6921 | -0.113 ± 0.00239 | – | –
[3], x2 = 0.7432 | -0.104 ± 0.00227 | – | –
[3], x2 = 0.8767 | -0.0624 ± 0.00139 | – | –
[3], x2 = 0.9549 | -0.0256 ± 0.000621 | – | –

Nc1ccccc1 [aniline]
[1]
Settings | mass density [kg/m3] | speed of sound [m/s] | vapor or sublimation pressure [kPa]
298.15 K | 1017.2 ± 0.6 | 1635 ± 3 | –
308.15 K | – | – | 0.12 ± 0.08

Settings | vapor or sublimation pressure [kPa]
[1], 298.15 K, Closed cell (Static) method | 0.0933 ± 0.08

Nc1ccccc1 [aniline] + C1CCOCC1
Settings | excess molar enthalpy [kcal/mol] | excess molar volume [m3/mol] | speed of sound [m/s]
[2], x2 = 0.0702 | – | -9.7e-08 ± 2e-09 | –
[2], x2 = 0.0912 | – | – | 1564 ± 3
[2], x2 = 0.1516 | – | – | 1543 ± 3
[2], x2 = 0.1767 | – | -2.45e-07 ± 3e-09 | –
[2], x2 = 0.2381 | – | -3.22e-07 ± 4e-09 | –
[2], x2 = 0.2414 | – | – | 1510 ± 3
[2], x2 = 0.2952 | – | -3.84e-07 ± 5e-09 | –
[2], x2 = 0.299 | – | – | 1490 ± 3
[2], x2 = 0.3347 | – | -4.2e-07 ± 5e-09 | –
[2], x2 = 0.3541 | – | – | 1470 ± 3
[2], x2 = 0.3913 | – | -4.59e-07 ± 5e-09 | –
[2], x2 = 0.4354 | – | -4.8e-07 ± 5e-09 | –
[2], x2 = 0.4417 | – | – | 1438 ± 3
[2], x2 = 0.4904 | – | -4.92e-07 ± 6e-09 | –
[2], x2 = 0.5312 | – | – | 1404 ± 3
[2], x2 = 0.5525 | – | -4.87e-07 ± 5e-09 | –
[2], x2 = 0.5943 | – | – | 1379 ± 3
[2], x2 = 0.628 | – | -4.56e-07 ± 5e-09 | –
[2], x2 = 0.6511 | – | – | 1357 ± 3
[2], x2 = 0.6989 | – | -4.01e-07 ± 5e-09 | –
[2], x2 = 0.7344 | – | – | 1324 ± 3
[2], x2 = 0.7412 | – | -3.59e-07 ± 4e-09 | –
[2], x2 = 0.8117 | – | – | 1294 ± 3
[2], x2 = 0.8548 | – | -2.15e-07 ± 3e-09 | –
[2], x2 = 0.883 | – | – | 1267 ± 3
[2], x2 = 0.9204 | – | -1.19e-07 ± 3e-09 | –
[2], x2 = 0.9413 | – | – | 1245 ± 3
[2], x2 = 0.9812 | – | – | 1231 ± 3
[3], x2 = 0.0545 | -0.02 ± 0.000502 | – | –
[3], x2 = 0.1711 | -0.0599 ± 0.00134 | – | –
[3], x2 = 0.2234 | -0.0767 ± 0.0017 | – | –
[3], x2 = 0.2761 | -0.0929 ± 0.00203 | – | –
[3], x2 = 0.3509 | -0.114 ± 0.00239 | – | –
[3], x2 = 0.4214 | -0.132 ± 0.00287 | – | –
[3], x2 = 0.5512 | -0.155 ± 0.00335 | – | –
[3], x2 = 0.5879 | -0.158 ± 0.00335 | – | –
[3], x2 = 0.6213 | -0.159 ± 0.00335 | – | –
[3], x2 = 0.6821 | -0.157 ± 0.00335 | – | –
[3], x2 = 0.7511 | -0.147 ± 0.00311 | – | –
[3], x2 = 0.8145 | -0.128 ± 0.00287 | – | –
[3], x2 = 0.8914 | -0.0893 ± 0.00196 | – | –
[3], x2 = 0.9413 | -0.0539 ± 0.00122 | – | –

C1CCOCC1 [tetrahydropyran]
[1]
Settings | mass density [kg/m3] | vapor or sublimation pressure [kPa]
298.15 K | 868.6 ± 0.5 | –
308.15 K | – | 13.79 ± 0.47

Settings | vapor or sublimation pressure [kPa]
[1], 298.15 K, Closed cell (Static) method | 9.533 ± 0.08
